In BindingDB's records for patent US20240360157 (Biogen Ma, 2024) one finds IC50 data, which are given here for two molecules.

Common to all, as to experiment: ADP-Glo Kinase Assay
For orientation: ADP-Glo turns the ADP formed in a reaction into a luminescent signal.

Test [1] deals with Non-receptor tyrosine-protein kinase TYK2 (Homo sapiens, UniProt P29597). As to the method: (§1) The kinase activity of recombinantly generated catalytic kinase (also known as JH1) domain of human JAK1, JAK2, JAK3 and TYK2 were evaluated in a plate-based assay using the ADP-Glo™ Kinase Assay platform. Specifically, 4 nM of recombinant JAK1 kinase domain is used to phosphorylate 50 μM of a JAK3-342 (sequence ALVDGYFRLTT) peptide in the presence of 35 μM ATP. Catalytic activities of recombinant JAK2, JAK3 and TYK2 kinase domain (0.2, 0.3 and 2 nM, respectively) are evaluated by the phosphorylation status of the JAK3-974 (50 μM; sequence LPLDKDYYVVR) peptide with the addition of ATP (15, 4 and 10 μM, respectively). The reactions proceed for 100 minutes and the catalytic activity is quantified by first depleting the unused ATP, converting the hydrolyzed ADP into ATP to generate luminescence in a luciferase reaction; which is the basis of the ADP-Glo platform. Compounds are tested at either 10 μM or 1 μM top concentration, 11 points of 3-fold dilution.
Non-receptor tyrosine-protein kinase TYK2, sequence (P29597 whole entry, the tested form may be a part): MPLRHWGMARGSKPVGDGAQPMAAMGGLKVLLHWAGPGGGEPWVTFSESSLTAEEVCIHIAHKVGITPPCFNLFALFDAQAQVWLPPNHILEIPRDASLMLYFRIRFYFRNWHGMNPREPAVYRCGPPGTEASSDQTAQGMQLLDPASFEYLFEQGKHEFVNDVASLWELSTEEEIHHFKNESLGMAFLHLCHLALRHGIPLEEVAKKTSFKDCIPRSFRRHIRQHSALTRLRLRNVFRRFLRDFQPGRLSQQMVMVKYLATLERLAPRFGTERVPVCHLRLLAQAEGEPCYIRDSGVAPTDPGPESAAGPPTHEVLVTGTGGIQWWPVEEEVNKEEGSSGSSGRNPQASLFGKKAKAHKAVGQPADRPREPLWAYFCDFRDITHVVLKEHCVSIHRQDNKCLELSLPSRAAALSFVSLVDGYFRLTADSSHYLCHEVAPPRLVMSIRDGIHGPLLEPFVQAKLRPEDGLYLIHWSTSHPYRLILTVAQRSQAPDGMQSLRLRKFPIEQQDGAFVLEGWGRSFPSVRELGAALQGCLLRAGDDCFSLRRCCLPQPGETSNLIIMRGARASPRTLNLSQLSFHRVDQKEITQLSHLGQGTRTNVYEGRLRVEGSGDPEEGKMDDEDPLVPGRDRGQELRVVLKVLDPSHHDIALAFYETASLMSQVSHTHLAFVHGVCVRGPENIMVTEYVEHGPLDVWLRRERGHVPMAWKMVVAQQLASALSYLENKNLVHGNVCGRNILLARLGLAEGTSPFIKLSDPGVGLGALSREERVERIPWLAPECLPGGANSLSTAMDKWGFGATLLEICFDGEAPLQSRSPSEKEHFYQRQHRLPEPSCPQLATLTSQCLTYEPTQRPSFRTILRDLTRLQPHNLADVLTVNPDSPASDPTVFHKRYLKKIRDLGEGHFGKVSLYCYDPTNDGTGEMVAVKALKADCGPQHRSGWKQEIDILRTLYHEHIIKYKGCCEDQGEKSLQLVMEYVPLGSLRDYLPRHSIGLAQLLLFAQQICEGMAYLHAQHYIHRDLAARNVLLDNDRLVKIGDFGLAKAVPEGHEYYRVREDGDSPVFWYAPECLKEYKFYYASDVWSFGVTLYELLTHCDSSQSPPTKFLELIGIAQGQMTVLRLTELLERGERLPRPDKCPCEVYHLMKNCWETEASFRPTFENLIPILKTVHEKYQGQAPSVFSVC

In test [2] the target is Tyrosine-protein kinase JAK1 (Homo sapiens, UniProt P23458). How it is done: as §1
Tyrosine-protein kinase JAK1, sequence (P23458 whole entry): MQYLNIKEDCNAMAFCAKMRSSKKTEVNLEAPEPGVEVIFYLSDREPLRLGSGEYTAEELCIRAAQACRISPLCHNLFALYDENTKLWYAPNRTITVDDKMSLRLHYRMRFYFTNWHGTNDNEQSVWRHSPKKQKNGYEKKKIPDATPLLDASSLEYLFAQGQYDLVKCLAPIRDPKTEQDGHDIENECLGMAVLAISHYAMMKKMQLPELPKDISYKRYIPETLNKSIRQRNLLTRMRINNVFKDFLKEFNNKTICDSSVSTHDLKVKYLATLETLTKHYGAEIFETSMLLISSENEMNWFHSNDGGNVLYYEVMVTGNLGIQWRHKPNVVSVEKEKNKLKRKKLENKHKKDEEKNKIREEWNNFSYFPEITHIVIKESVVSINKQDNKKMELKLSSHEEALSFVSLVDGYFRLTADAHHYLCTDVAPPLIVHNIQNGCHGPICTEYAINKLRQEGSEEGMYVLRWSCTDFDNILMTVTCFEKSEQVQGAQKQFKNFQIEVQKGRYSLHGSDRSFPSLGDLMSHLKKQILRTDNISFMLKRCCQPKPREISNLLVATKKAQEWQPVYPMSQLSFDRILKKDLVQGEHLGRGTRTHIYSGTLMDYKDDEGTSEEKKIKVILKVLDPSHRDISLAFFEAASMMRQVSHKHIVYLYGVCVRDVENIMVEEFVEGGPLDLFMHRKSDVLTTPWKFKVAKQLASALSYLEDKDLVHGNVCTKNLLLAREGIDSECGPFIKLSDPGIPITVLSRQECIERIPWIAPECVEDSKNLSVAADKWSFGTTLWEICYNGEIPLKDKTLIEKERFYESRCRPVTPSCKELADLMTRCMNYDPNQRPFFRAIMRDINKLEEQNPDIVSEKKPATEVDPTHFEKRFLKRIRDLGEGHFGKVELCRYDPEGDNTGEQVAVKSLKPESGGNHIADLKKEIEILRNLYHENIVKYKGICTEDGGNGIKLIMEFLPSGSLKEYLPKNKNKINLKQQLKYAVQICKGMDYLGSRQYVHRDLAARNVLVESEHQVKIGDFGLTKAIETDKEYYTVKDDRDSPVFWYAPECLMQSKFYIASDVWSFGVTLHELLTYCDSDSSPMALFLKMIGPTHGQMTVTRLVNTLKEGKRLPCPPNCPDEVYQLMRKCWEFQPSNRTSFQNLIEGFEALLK
For test [3], the target named is Tyrosine-protein kinase JAK2 (Homo sapiens, UniProt O60674). As to the method:
as §1

In test [4] the target is T1, Tyrosine-protein kinase JAK3 [3-974] (UniProt P52333).
T1 construct: 3-974
T1 sequence (P52333 whole entry): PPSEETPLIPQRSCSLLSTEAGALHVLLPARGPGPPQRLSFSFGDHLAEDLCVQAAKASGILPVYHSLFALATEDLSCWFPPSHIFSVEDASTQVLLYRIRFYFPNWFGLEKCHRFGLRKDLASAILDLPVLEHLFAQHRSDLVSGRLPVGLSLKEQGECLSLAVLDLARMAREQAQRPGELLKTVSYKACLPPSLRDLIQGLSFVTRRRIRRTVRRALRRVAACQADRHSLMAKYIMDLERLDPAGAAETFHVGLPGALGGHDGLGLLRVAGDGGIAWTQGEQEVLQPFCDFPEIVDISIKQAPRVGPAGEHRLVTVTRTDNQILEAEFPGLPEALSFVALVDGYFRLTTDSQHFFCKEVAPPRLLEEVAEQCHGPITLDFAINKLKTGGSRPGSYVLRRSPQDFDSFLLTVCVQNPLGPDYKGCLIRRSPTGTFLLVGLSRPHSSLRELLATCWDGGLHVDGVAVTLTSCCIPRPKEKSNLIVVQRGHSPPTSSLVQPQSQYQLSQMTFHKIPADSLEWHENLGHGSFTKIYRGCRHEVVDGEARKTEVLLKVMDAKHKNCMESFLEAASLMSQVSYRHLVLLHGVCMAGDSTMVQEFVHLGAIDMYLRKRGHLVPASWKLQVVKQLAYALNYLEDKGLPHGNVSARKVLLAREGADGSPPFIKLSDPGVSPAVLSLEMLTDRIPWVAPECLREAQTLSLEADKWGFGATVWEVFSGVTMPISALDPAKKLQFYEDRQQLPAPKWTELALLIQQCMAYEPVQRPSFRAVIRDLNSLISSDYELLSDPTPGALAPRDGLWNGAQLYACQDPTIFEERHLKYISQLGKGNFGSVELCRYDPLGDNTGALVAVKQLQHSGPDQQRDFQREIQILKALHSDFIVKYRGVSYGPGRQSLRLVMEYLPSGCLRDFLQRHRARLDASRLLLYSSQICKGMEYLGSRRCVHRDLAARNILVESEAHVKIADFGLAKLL
As to the method:
as §1

Molecules are shown by their SMILES.

Tyrosine-protein kinase JAK2, sequence (O60674 whole entry): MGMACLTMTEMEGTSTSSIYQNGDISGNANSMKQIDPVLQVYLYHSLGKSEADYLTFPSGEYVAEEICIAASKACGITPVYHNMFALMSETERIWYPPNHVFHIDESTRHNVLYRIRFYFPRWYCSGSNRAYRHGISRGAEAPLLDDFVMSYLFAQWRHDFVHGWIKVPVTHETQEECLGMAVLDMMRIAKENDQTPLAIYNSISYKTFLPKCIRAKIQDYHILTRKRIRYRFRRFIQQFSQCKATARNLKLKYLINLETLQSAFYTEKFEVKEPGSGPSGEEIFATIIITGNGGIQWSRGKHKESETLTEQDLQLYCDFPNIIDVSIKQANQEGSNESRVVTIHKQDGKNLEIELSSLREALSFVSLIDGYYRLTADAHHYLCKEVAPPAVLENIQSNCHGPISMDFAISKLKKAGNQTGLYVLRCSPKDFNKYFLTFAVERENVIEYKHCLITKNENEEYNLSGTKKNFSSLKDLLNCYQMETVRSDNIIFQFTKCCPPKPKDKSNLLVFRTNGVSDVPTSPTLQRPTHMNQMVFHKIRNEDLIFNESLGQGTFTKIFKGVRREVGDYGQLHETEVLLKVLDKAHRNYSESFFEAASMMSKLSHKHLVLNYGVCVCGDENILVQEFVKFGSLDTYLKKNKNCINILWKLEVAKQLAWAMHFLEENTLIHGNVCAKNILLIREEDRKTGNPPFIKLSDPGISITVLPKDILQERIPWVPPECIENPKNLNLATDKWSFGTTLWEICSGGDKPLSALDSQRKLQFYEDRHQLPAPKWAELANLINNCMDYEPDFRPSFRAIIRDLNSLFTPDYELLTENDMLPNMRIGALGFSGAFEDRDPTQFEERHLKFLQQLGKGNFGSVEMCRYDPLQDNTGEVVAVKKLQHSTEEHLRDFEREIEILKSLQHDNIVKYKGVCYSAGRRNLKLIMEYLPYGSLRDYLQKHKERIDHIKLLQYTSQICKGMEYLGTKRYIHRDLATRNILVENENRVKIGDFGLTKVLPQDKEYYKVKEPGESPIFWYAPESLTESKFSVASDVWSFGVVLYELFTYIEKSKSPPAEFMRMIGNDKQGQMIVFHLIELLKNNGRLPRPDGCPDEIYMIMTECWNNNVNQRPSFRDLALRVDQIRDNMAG

For orientation: IC50 means the point on the concentration scale where inhibition reaches its midpoint. Low values mean greater potency, high ones weaker potency. For `COc1cc(-c2cc3c(N4CC5CCC(C4)N5C(=O)[C@@H]4C[C@H]4F)ccnc3[nH]2)c(F)cn1` [US20240360157, Example 246], the concentration for half-maximal inhibition (IC50) in test [1] worked out at 5.1 nM; in test [2] it was 76 nM; in test [3] it was 53 nM; in test [4], 992 nM.

For `Cn1cc(-c2cc3c(N4CC5CCC(C4)N5C(=O)[C@@H]4CC4(F)F)ccnc3[nH]2)cn1` [US20240360157, Example 239], the IC50 in test [1] was 0.2 nM; in test [2] it was 18 nM; in test [3], 8 nM; in test [4], 114 nM.
